Experimental data as given in PubChem BioAssay (NCI).
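GI50 is the concentration that inhibits growth by half. TGI is the concentration that stops growth completely.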

Experiments:
Assay in all cases: NCI anticancer screen, dose series, 384-well format
HS 578T breast = test system: HS 578T breast
UO-31 renal = test system: UO-31 renal
MOLT-4 leukemia = test system: MOLT-4 leukemia
SF-539 CNS = test system: SF-539 CNS
M14 melanoma = test system: M14 melanoma
BT-549 breast = test system: BT-549 breast
TK-10 renal = test system: TK-10 renal
RXF 393 renal = test system: RXF 393 renal
HCC-2998 colon = test system: HCC-2998 colon
UACC-257 melanoma = test system: UACC-257 melanoma
NCI-H460 NSCLC = test system: NCI-H460 NSCLC
MCF7 breast = test system: MCF7 breast
MDA-MB-435 melanoma = test system: MDA-MB-435 melanoma

SMILES: COCCOc1cc(F)c2c(Nc3ccc(NC(=O)Cn4cc(C(C)C)nn4)cc3)ncnc2c1
- GI50 (HS 578T breast): 12.2 µM
- TGI (HS 578T breast): 82.3 µM
- GI50 (UO-31 renal): 72 µM
- TGI (UO-31 renal): > 100 µM
- GI50 (MOLT-4 leukemia): 3.68 µM
- TGI (MOLT-4 leukemia): 18.7 µM
- GI50 (SF-539 CNS): 11.6 µM
- TGI (SF-539 CNS): > 100 µM
- GI50 (M14 melanoma): 59 µM
- TGI (M14 melanoma): > 100 µM
- GI50 (BT-549 breast): 38.4 µM
- TGI (BT-549 breast): > 100 µM
- GI50 (TK-10 renal): 29.8 µM
- TGI (TK-10 renal): > 100 µM
- GI50 (RXF 393 renal): 39.8 µM
- TGI (RXF 393 renal): > 100 µM
- GI50 (HCC-2998 colon): 29.3 µM
- TGI (HCC-2998 colon): > 100 µM
- GI50 (UACC-257 melanoma): 60.6 µM
- TGI (UACC-257 melanoma): > 100 µM
- GI50 (NCI-H460 NSCLC): 31.7 µM
- TGI (NCI-H460 NSCLC): > 100 µM
- GI50 (MCF7 breast): 21.9 µM
- TGI (MCF7 breast): > 100 µM
- GI50 (MDA-MB-435 melanoma): 62.1 µM
- TGI (MDA-MB-435 melanoma): > 100 µM
